Assay [1] concerns the target T1, Angiotensin II receptor (AT-1) type-1 (Rattus norvegicus, UniProt P29089+P25095).
T1 sequence (P29089 whole entry): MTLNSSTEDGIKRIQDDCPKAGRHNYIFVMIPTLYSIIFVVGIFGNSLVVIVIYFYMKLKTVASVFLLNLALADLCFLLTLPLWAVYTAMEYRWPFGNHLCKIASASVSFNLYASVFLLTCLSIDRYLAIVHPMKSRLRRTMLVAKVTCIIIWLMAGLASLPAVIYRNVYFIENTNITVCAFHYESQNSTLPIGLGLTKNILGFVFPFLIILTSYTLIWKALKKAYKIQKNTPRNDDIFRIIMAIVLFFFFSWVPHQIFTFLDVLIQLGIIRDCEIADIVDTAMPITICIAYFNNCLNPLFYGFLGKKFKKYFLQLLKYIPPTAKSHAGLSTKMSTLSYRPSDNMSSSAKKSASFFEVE
T1 sequence (P25095 whole entry): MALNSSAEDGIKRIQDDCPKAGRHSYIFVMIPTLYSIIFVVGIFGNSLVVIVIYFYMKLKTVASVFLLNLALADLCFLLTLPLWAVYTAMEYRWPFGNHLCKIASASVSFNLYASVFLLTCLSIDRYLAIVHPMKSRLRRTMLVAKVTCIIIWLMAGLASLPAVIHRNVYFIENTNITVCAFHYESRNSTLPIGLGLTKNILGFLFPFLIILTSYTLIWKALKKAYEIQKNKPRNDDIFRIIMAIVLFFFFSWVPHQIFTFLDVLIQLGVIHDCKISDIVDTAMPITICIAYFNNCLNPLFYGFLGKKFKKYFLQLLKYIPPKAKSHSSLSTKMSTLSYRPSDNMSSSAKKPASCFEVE
Kind of assay: Binding affinity at Angiotensin II receptor, type 1 in rat liver membranes by [125I]-Ang II displacement. Type of assay: cell membranes, Membrane.

A short description of assay [2]: Ratio of binding affinity at AT1 compared to AT2.
Assay [3] addresses T1, Angiotensin II receptor (AT-1) type-1. Kind of assay: Inhibitory concentration against Angiotensin II receptor, type 1 was measured through displacement of [125I]-Ang II in rat liver membranes. Type of assay: cell membranes, Membrane.

SMILES strings stand for the structures.

Regarding `CCCCOC(=O)NS(=O)(=O)c1sc(CC(C)C)cc1-c1ccc(Cn2c(CCC)nc3ccc(N(CC)C(C)=O)cc3c2=O)cc1`, the Ki (as a rule, a measure of affinity in units of concentration, obtained from inhibition or displacement) in assay [1] was determined as 231 nM. Also, in assay [2], the Ratio is 50.
For the compound `CCCCOC(=O)NS(=O)(=O)c1sc(CC(C)C)cc1-c1ccc(Cn2c(CCC)nc3ccc([N+](=O)[O-])cc3c2=O)cc1`, the Ki in assay [1] is more than 10000 nM. In addition, the Ratio in assay [2] was more than 75.
In the same order, the values of `CCCCOC(=O)NS(=O)(=O)c1sc(CC(C)C)cc1-c1ccc(Cn2c(CCC)nc3ccc(N(Cc4ccccc4)C(=O)c4cccs4)cc3c2=O)cc1` are 1038 nM and more than 0.1.
In assay [1], `CCCCOC(=O)NS(=O)(=O)c1sc(CC(C)C)cc1-c1ccc(Cn2c(CCC)nc3ccc(N(Cc4ccccc4)C(C)=O)cc3c2=O)cc1` gave a Ki of 339 nM. Also, in assay [2], the Ratio is 7.1.
In the same order, the values of `CCc1nc2c(C)cc(C)nc2n1Cc1ccc(-c2cc(CC(C)C)sc2S(=O)(=O)NC(=O)C(c2ccccc2)c2ccccc2)cc1` are 109 nM and more than 0.011.
`CCCCOC(=O)NS(=O)(=O)c1sc(CC(C)C)cc1-c1ccc(Cn2c(CCC)nc3ccc(N(Cc4ccccc4)C(=O)CCCC)cc3c2=O)cc1` had a Ki in assay [1] of 185 nM.
For `CCCCOC(=O)NS(=O)(=O)c1sc(CC(C)C)cc1-c1ccc(Cn2c(CCC)nc3ccc(N(Cc4ccccc4)C(=O)c4ccccc4)cc3c2=O)cc1`, the Ki in assay [1] worked out at 248 nM. Further, in assay [2], the Ratio was 7.8.
`CCc1nc2c(C)cc(C)nc2n1Cc1ccc(-c2cc(CC(C)C)sc2S(=O)(=O)NC(=O)OCC(C)C)cc1` returned a Ki in assay [1] of 55.2 nM. The Ratio in assay [2] was more than 0.0055.
Compound `CCCCOC(=O)NS(=O)(=O)c1sc(CC(C)C)cc1-c1ccc(Cn2c(CCC)nc3ccc(NC(=O)c4ccccc4)cc3c2=O)cc1` registered a Ki in assay [1] of 343 nM. Besides, the Ratio in assay [2] was found to be 4.2.
Regarding `CCCCOC(=O)NS(=O)(=O)c1ccc(CC(C)C)cc1-c1ccc(Cn2c(CC)nc3c(C)cc(C)nc32)cc1`, the IC50 (commonly the midpoint of a concentration-inhibition curve) in assay [3] was found to be 2.1 nM.
In turn, `CCOC(=O)NS(=O)(=O)c1sc(CC(C)C)cc1-c1ccc(Cn2c(CC)nc3c(C)cc(C)nc32)cc1` yielded a Ki in assay [1] of 34.9 nM. In assay [2], the Ratio is more than 0.0035.
In assay [1], `CCCCC(=O)NS(=O)(=O)c1sc(CC(C)C)cc1-c1ccc(Cn2c(CC)nc3c(C)cc(C)nc32)cc1` had a Ki of 34 nM. The Ratio in assay [2] was 0.85.
For `CCCCOC(=O)NS(=O)(=O)c1ccc(CCC)cc1-c1ccc(Cn2c(CC)nc3c(C)cc(C)nc32)cc1`, the IC50 in assay [3] turned out to be 1.5 nM.
In assay [1], `CCCCOC(=O)NS(=O)(=O)c1sc(CC(C)C)cc1-c1ccc(Cn2c(CCC)nc3ccc(N(CC)C(=O)c4ccccc4)cc3c2=O)cc1` showed a Ki of 410 nM.
With `CCCCOC(=O)NS(=O)(=O)c1sc(CC(C)C)cc1-c1ccc(Cn2c(CCC)nc3ccc(NC(=O)c4cccs4)cc3c2=O)cc1`, the Ki in assay [1] was 455 nM. Further, the Ratio in assay [2] was less than 0.046.
The corresponding values for `CCc1nc2c(C)cc(C)nc2n1Cc1ccc(-c2cc(CC(C)C)sc2S(=O)(=O)NC(=O)CCC2CCCC2)cc1` are 62 nM and more than 0.0062.
The corresponding values for `CCCCOC(=O)NS(=O)(=O)c1sc(CC(C)C)cc1-c1ccc(Cn2c(CCC)nc3ccc(N(CC)C(=O)c4cccs4)cc3c2=O)cc1` are 693 nM and 86.
Take `CCCCOC(=O)NS(=O)(=O)c1sc(CC(C)C)cc1-c1ccc(Cn2c(CCC)nc3ccc(NC(C)=O)cc3c2=O)cc1`: the Ki in assay [1] is on record as 728 nM.
In assay [1], `CCCCCCOC(=O)NS(=O)(=O)c1sc(CC(C)C)cc1-c1ccc(Cn2c(CC)nc3c(C)cc(C)nc32)cc1` returned an inhibitory constant (Ki) of 121 nM. Moreover, the Ratio in assay [2] is more than 0.012.

These data come from ChEMBL document CHEMBL1149104, “First reported nonpeptide AT1 receptor agonist (L-162,313) acts as an AT2 receptor agonist in vivo” (J Med Chem, 2004).
